Measured values from patent publication US20240246964A1 (Arbutus Biopharma Corporation, priority 2021, published 2024).

Target: human PD-L1 (Homo sapiens (Human), UniProt Q9NZQ7)
Assay: T cell activation luciferase reporter cell culture system (T Cell Activation Assay)
Type: cell-based
Settings: luciferase reporter assay; PD-L1 aAPC/CHO-K1 cells with PD-1 effector Jurkat T cells

Sequence of human PD-L1 (Q9NZQ7 19-290): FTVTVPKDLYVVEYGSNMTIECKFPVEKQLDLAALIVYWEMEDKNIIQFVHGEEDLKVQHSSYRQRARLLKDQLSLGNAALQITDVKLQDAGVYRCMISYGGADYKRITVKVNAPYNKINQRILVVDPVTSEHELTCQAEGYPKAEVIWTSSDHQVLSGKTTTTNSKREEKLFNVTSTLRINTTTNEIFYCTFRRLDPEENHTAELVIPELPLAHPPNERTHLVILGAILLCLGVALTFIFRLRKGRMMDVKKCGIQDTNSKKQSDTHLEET

Row | SMILES | EC50 [nM]
1 | COc1cc(-c2nccc(-c3cccc(-c4ccn5c(=O)c(CNC[C@@H]6CCC(=O)N6)cnc5c4)c3Cl)c2Cl)ccc1CNC[C@@H]1CCC(=O)N1 [Cmpd 1, 8-(2-chloro-3-(3-chloro-2-(3-methoxy-4-(((((S)-5-oxopyrrolidin-2-yl)methyl)amino)methyl)phenyl)pyridin-4-yl)phenyl)-3-(((((S)-5-oxopyrrolidin-2-yl)methyl)amino)methyl)-4H-pyrido[1,2-a]pyrimidin-4-one] | 300
2 | COc1nc(-c2cccc(-c3ccnc(-c4ccn5c(=O)c(CNC[C@@H]6CCC(=O)N6)cnc5c4)c3Cl)c2Cl)ccc1CNC[C@@H]1CCC(=O)N1 [Cmpd 2, 8-(3-chloro-4-(2-chloro-3-(6-methoxy-5-(((((S)-5-oxopyrrolidin-2-yl)methyl)amino)methyl)pyridin-2-yl)phenyl)pyridin-2-yl)-3-(((((S)-5-oxopyrrolidin-2-yl)methyl)amino)methyl)-4H-pyrido[1,2-a]pyrimidin-4-one] | 87.6
3 | COc1nc(-c2cccc(-c3ccnc(-c4ccc5c(c4)N(C)CCNC5)c3Cl)c2Cl)ccc1CNC[C@@H]1CCC(=O)N1 [Cmpd 3, (S)-5-((((6-(2-chloro-3-(3-chloro-2-(1-methyl-2,3,4,5-tetrahydro-1H-benzo[e][1,4]diazepin-8-yl)pyridin-4-yl)phenyl)-2-methoxypyridin-3-yl)methyl)amino)methyl)pyrrolidin-2-one] | 42.9
4 | COc1nc(-c2cccc(-c3ccnc(-c4ccc5c(c4)N(C)CCNC5)c3Cl)c2Cl)ccc1CNCC(C)NC(C)=O (stereo not drawn) [Cmpd 5, N-(1-(((6-(2-chloro-3-(3-chloro-2-(1-methyl-2,3,4,5-tetrahydro-1H-benzo[e][1,4]diazepin-8-yl)pyridin-4-yl)phenyl)-2-methoxypyridin-3-yl)methyl)amino)propan-2-yl)acetamide] | 172
5 | COc1cc(-c2nccc(-c3cccc(-c4ccc(CNC[C@@H]5CCC(=O)N5)c(OC)n4)c3Cl)c2Cl)cc2c1CN(C[C@@H]1CCC(=O)N1)CC2 [Cmpd 6, (S)-5-((((6-(2-chloro-3-(3-chloro-2-(8-methoxy-2-(((S)-5-oxopyrrolidin-2-yl)methyl)-1,2,3,4-tetrahydroisoquinolin-6-yl)pyridin-4-yl)phenyl)-2-methoxypyridin-3-yl)methyl)amino)methyl)pyrrolidin-2-one] | 22.3
6 | COc1cc(-c2nccc(-c3cccc(-c4ccc(CNC[C@@H]5CCC(=O)N5)c(OC)n4)c3Cl)c2Cl)cc2c1CNCC2 [Cmpd 7, (S)-5-((((6-(2-chloro-3-(3-chloro-2-(8-methoxy-1,2,3,4-tetrahydroisoquinolin-6-yl)pyridin-4-yl)phenyl)-2-methoxypyridin-3-yl)methyl)amino)methyl)pyrrolidin-2-one] | 53.5
7 | COc1cc(-c2nccc(-c3cccc(-c4ccc(CNC[C@@H]5CCC(=O)N5)c(OC)n4)c3Cl)c2Cl)ccc1CNC[C@@H]1CCC(=O)N1 [Cmpd 8, (S)-5-((((6-(2-chloro-3-(3-chloro-2-(3-methoxy-4-(((((S)-5-oxopyrrolidin-2-yl)methyl)amino)methyl)phenyl)pyridin-4-yl)phenyl)-2-methoxypyridin-3-yl)methyl)amino)methyl)pyrrolidin-2-one] | 15
8 | COc1cc(-c2nccc(-c3cccc(-c4ccc(CNC[C@@H]5CCC(=O)N5)c(OC)n4)c3Cl)c2Cl)cc(F)c1CNC[C@@H]1CCC(=O)N1 [Cmpd 10, (S)-5-((((6-(2-chloro-3-(3-chloro-2-(3-fluoro-5-methoxy-4-(((((S)-5-oxopyrrolidin-2-yl)methyl)amino)methyl)phenyl)pyridin-4-yl)phenyl)-2-methoxypyridin-3-yl)methyl)amino)methyl)pyrrolidin-2-one] | 20.9
9 | COc1nc(-c2cccc(-c3ccnc(-c4ccc5c(CNC[C@@H]6CCC(=O)N6)cn(C)c5c4)c3Cl)c2Cl)ccc1CNC[C@@H]1CCC(=O)N1 [Cmpd 11, (S)-5-((((6-(2-chloro-3-(3-chloro-2-(1-methyl-3-(((((S)-5-oxopyrrolidin-2-yl)methyl)amino)methyl)-1H-indol-6-yl)pyridin-4-yl)phenyl)-2-methoxypyridin-3-yl)methyl)amino)methyl)pyrrolidin-2-one] | 84
10 | COc1nc(-c2cccc(-c3ccnc(-c4cnc5c(CNC[C@@H]6CCC(=O)N6)cn(C)c5c4)c3Cl)c2Cl)ccc1CNC[C@@H]1CCC(=O)N1 [Cmpd 13, (S)-5-((((6-(2-chloro-3-(3-chloro-2-(1-methyl-3-(((((S)-5-oxopyrrolidin-2-yl)methyl)amino)methyl)-1H-pyrrolo[3,2-b]pyridin-6-yl)pyridin-4-yl)phenyl)-2-methoxypyridin-3-yl)methyl)amino)methyl)pyrrolidin-2-one] | 77.7

Other lines, results leading:

Row | EC50 [nM] | SMILES
11 | 66.9 | COc1nc(-c2cccc(-c3ccnc(-c4ccc(CNC5CCN(C)C(=O)C5)c(OC(F)F)c4)c3Cl)c2Cl)ccc1CNC1CCN(C)C(=O)C1 (racemic) [Example 619, 4-(((6-(2-Chloro-3-(3-chloro-2-(3-(difluoromethoxy)-4-(((1-methyl-2-oxopiperidin-4-yl)amino)methyl)phenyl)pyridin-4-yl)phenyl)-2-methoxypyridin-3-yl)methyl)amino)-1-methylpiperidin-2-one]
12 | 61.4 | COc1nc(-c2cccc(-c3ccnc(-c4ccc5c(c4)N(C)CCN(C[C@@H]4CCC(=O)N4)C5)c3Cl)c2Cl)ccc1CNC[C@@H]1CCC(=O)N1 [Cmpd 19, (S)-5-((((6-(2-chloro-3-(3-chloro-2-(1-methyl-4-(((S)-5-oxopyrrolidin-2-yl)methyl)-2,3,4,5-tetrahydro-1H-benzo[e][1,4]diazepin-8-yl)pyridin-4-yl)phenyl)-2-methoxypyridin-3-yl)methyl)amino)methyl)pyrrolidin-2-one]
13 | 22.3 | COc1cc(-c2nccc(-c3cccc(-c4cnc(CNC[C@@H]5CCC(=O)N5)c(OC)n4)c3Cl)c2Cl)ccc1CNC[C@@H]1CCC(=O)N1 [Cmpd 20, (S)-5-((((5-(2-chloro-3-(3-chloro-2-(3-methoxy-4-(((((S)-5-oxopyrrolidin-2-yl)methyl)amino)methyl)phenyl)pyridin-4-yl)phenyl)-3-methoxypyrazin-2-yl)methyl)amino)methyl)pyrrolidin-2-one]
14 | 25.1 | COc1cc(-c2nccc(-c3cccc(-c4ccc(CNC[C@@H]5CCC(=O)N5)c(OC)n4)c3Cl)c2Cl)cc2c1CN(C[C@@H](C)O)CC2 [Cmpd 27, (S)-5-((((6-(2-chloro-3-(3-chloro-2-(2-((R)-2-hydroxypropyl)-8-methoxy-1,2,3,4-tetrahydroisoquinolin-6-yl)pyridin-4-yl)phenyl)-2-methoxypyridin-3-yl)methyl)amino)methyl)pyrrolidin-2-one]
15 | 25.6 | COc1cc(-c2nccc(-c3cccc(-c4cc(Cl)c(CNC[C@@H]5CCC(=O)N5)c(OC)n4)c3Cl)c2Cl)cc2c1CN(C[C@@H]1CCC(=O)N1)CC2 [Cmpd 37, (S)-5-((6-(3-chloro-4-(2-chloro-3-(4-chloro-6-methoxy-5-(((((S)-5-oxopyrrolidin-2-yl)methyl)amino)methyl)pyridin-2-yl)phenyl)pyridin-2-yl)-8-methoxy-3,4-dihydroisoquinolin-2(1H)-yl)methyl)pyrrolidin-2-one]
